This is an account of results in US6867185B2 (Bristol-Myers Squibb Company, priority 2001, dated 2005).

Like-named read-outs stand apart in the source and are kept apart here.

The conditions of series [1]: rcm bond, 1,2-DCE.
For series [2] the following is noted: rcm bond, 1,2-dichloroethane.
Series [3] addresses T1, HCV NS3/4A protease complex, BMS strain (genotype 1a) (Hepatitis C virus genotype 1a, UniProt P27958, C1454S/C1711G).
T1 construct: recombinant HCV NS3/4A protease complex (amino'acids 1027 to 1711); inferred from the pET21b vector and Ni-NTA purification; made in house; host or cells: Escherichia coli BL21 (DE3), pET21b
The experiment in a line: Recombinant HCV NS3/4A protease complex FRET peptide assay (BMS strain). Format: biochemical. The settings on record: IC50, HCV NS3/4A protease FRET assay in vitro; IC50 ranges. The method, boiled down: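 Enzyme was NS3/4A complex (aa 1027-1711) from genotype 1a BMS strain, carrying C1454S and C1711G mutations plus a three-lysine tail, expressed in E. coli and Ni-NTA/size-exclusion purified to >90% purity.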

In series [4] the test system is HCV replicon in Huh7 cells. As to the kind of experiment: HCV replicon cell-based assay (replicon FRET assay). The arrangement: species or system HCV strain 1B. The settings on record: Hepatitis C virus, Huh-7, HCV replicon cell assay; EC50 ranges. Summed up:
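Huh7 cells carrying a genotype 1b subgenomic replicon (neo, NS3–NS5B) were treated with compound for 4 days at 37 °C in 0.5% DMSO final. Lysates with 10 μM RET S1 FRET peptide and 150 mM NaCl were read kinetically at 340/490 nm over 21 cycles. EC50 was derived as for the enzyme IC50.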

Where [5] appears, read: from 1-{[1-(2(S)-tert-butoxycarbonylamino-oct-7-enoyl)-4-(7-methoxy-2-phenylquinolin-4(R)-yloxy)-pyrrolidine-2(S)-carbonyl]-1(R)-amino]-2(S)-vinyl-cyclopropanecarboxylic acid ethyl ester, 14-membered ring, Grubbs catalyst (275 + 225 mg).

T1 sequence (P27958 1027-1711 C1454S/C1711G, one chain of several): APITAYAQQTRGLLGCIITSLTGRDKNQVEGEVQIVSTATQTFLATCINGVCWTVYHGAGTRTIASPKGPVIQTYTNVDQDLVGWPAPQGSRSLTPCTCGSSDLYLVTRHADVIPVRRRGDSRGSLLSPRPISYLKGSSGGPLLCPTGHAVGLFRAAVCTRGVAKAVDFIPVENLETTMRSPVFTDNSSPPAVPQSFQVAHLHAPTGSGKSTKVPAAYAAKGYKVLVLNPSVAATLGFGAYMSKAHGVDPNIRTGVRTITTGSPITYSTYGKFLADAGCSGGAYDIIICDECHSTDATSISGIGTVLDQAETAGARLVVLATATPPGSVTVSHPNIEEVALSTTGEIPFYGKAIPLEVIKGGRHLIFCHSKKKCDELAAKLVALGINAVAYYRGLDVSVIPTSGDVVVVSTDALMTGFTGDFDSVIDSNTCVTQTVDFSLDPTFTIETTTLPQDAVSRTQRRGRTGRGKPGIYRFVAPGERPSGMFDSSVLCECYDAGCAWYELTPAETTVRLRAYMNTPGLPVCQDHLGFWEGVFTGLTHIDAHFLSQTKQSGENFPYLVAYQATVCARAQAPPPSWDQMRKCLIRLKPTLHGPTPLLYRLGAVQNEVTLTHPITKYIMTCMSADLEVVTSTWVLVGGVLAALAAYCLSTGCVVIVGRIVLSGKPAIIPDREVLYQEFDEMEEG

As for `CCOC(=O)[C@@]12CC1/C=C/CCCC[C@H](C(=O)OC(C)(C)C)C(=O)N1C[C@H](Oc3cc(-c4ccccc4)nc4cc(OC)ccc34)C[C@@]1(N)C(=O)N2` (stereo partly shown), the ring closure, isolated yield in series [1] (setting [5]) is 8%.

Turning to `CCOC(=O)[C@@]12C[C@H]1/C=C/CC[C@H](NC(=O)OC(C)(C)C)C(=O)N1C[C@H](Oc3cc(-c4ccccc4)nc4cc(OC)ccc34)C[C@H]1C(=O)N2`, the ring closure, isolated yield in series [1] (from 1-{[1-(2(S)-tert-butoxycarbonylamino-hex-5-enoyl)-4-(7-methoxy-2-phenyl-quinolin-4(R)-yloxy)-pyrroiidine-2(S)-carbonyl]-1(R)-amino}-2(S)-vinyl-cyclopropanecarboxylic acid ethyl ester, 12-membered ring, Grubbs catalyst (2 x 70 mg), 2.02 mM) amounted to 46%.

Regarding `CCOC(=O)[C@@]12C[C@H]1/C=C\CCCCC[C@H](NC(=O)OC(C)(C)C)C(=O)N1C[C@H](Oc3cc(-c4ccccc4)nc4cc(OC)ccc34)C[C@H]1C(=O)N2`, the ring closure, isolated yield in series [1] (from 1-{[1-(2(S)-tert-butoxycarbonylamino-non-8-enoyl)-4-(7-methoxy-2-phenylquinolin-4(R)-yloxy)-pyrrolidine-2(S)-carbonyl]-1(R)-amino]-2 (5)-vinylcyclopropanecarboxylic acid ethyl ester, 15-membered ring, Grubbs catalyst (3 x 150 mg), 0.83 mM) came to 75%.

As to `CCOC(=O)[C@@]12C[C@H]1/C=C\CCCC[C@H](NC(=O)OC(C)(C)C)C(=O)N1C[C@H](Oc3cc(-c4ccccc4)nc4cc(OC)ccc34)C[C@H]1C(=O)N2`, the ring closure, isolated yield turned out to be 20% in series [1] (setting [5]) and 52% in series [1] (from 1-{[1-(2(S)-tert-butoxycarbonylamino-oct-7-enoyl)-4-(7-methoxy-2-phenylquinolin-4(R)-yloxy)pyrrolidine-2(S)-carbonyl]-1(R)-amino]-2(S)-vinylcyclopropanecarboxylic acid ethyl ester, 14-membered ring, Grubbs catalyst (150 + 140 + 140 mg), 0.77 mM).

For `CCOC(=O)[C@@]12C[C@H]1C=CCCCCC[C@H](NC(=O)OC(C)(C)C)C(=O)N1C[C@H](Oc3cc(-c4ccccc4)nc4cc(OC)ccc34)C[C@H]1C(=O)N2`, the ring closure, yield of all isomers in series [2] (from C=CCCCCC[C@H](NC(=O)OC(C)(C)C)C(=O)N1C[C@H](Oc2cc(-c3ccccc3)nc3cc(OC)ccc23)C[C@H]1C(=O)N[C@]1(C(=O)OCC)C[C@H]1C=C, Grubbs catalyst, 0.829 mM, 83.0 °C, 15.0 h) stood at 75%.

Consider `CCOC(=O)[C@@]12C[C@H]1C=CCCCC[C@H](NC(=O)OC(C)(C)C)C(=O)N1C[C@H](Oc3cc(-c4ccccc4)nc4cc(OC)ccc34)C[C@H]1C(=O)N2`, for which the ring closure, yield of all isomers in series [2] (from C=CCCCC[C@H](NC(=O)OC(C)(C)C)C(=O)N1C[C@H](Oc2cc(-c3ccccc3)nc3cc(OC)ccc23)C[C@H]1C(=O)N[C@]1(C(=O)OCC)C[C@H]1C=C, Grubbs catalyst, 0.772 mM, 83.0 °C, 21.0 h) is 52%; in series [2] (from C=CCCCC[C@H](NC(=O)OC(C)(C)C)C(=O)N1C[C@H](Oc2cc(-c3ccccc3)nc3cc(OC)ccc23)C[C@H]1C(=O)N[C@]1(C(=O)OCC)C[C@H]1C=C, Grubbs catalyst, 2.02 mM, 83.0 °C, 15.0 h), 28%.

The molecule `CCOC(=O)[C@@]12C[C@H]1C=CCCCSC[C@@H](NC(=O)OC(C)(C)C)C(=O)N1C[C@H](Oc3cc(-c4ccccc4)nc4cc(OC)ccc34)C[C@H]1C(=O)N2` yielded a ring closure, yield of all isomers in series [2] (from C=CCCCSC[C@@H](NC(=O)OC(C)(C)C)C(=O)N1C[C@H](Oc2cc(-c3ccccc3)nc3cc(OC)ccc23)C[C@H]1C(=O)N[C@]1(C(=O)OCC)C[C@H]1C=C, Grubbs II (tricyclohexylphosphine[1,3-bis(2,4,6-trimethylphenyl)-4,5-dihydroimidazol-2-ylidene][benzylidene]ruthenium(IV) dichloride), 3.48 mM, 45.0 °C, 21.0 h) of 42%.

`CCOC(=O)[C@@]12C[C@H]1C=CCCC[C@H](NC(=O)OC(C)(C)C)C(=O)N1C[C@H](Oc3cc(-c4ccccc4)nc4cc(OC)ccc34)C[C@H]1C(=O)N2` gave a ring closure, yield of all isomers in series [2] (from C=CCCC[C@H](NC(=O)OC(C)(C)C)C(=O)N1C[C@H](Oc2cc(-c3ccccc3)nc3cc(OC)ccc23)C[C@H]1C(=O)N[C@]1(C(=O)OCC)C[C@H]1C=C, Grubbs catalyst, 2.02 mM, 83.0 °C, 15.0 h) of 49%.

In the case of `CCOC(=O)[C@@]12C[C@H]1C=CCC[C@H](NC(=O)OC(C)(C)C)C(=O)N1C[C@H](Oc3cc(-c4ccccc4)nc4cc(OC)ccc34)C[C@H]1C(=O)N2`, the ring closure, yield of all isomers in series [2] (from C=CCC[C@H](NC(=O)OC(C)(C)C)C(=O)N1C[C@H](Oc2cc(-c3ccccc3)nc3cc(OC)ccc23)C[C@H]1C(=O)N[C@]1(C(=O)OCC)C[C@H]1C=C, Grubbs catalyst, 2.02 mM, 83.0 °C, 15.0 h) came to 46%.

Turning to `COc1ccc2c(O[C@@H]3C[C@H]4C(=O)N[C@]5(C(=O)NS(=O)(=O)C6CC6)C[C@H]5C=CCCCCC[C@H](NC(=O)OC(C)(C)C)C(=O)N4C3)ccnc2c1`, the ring closure, yield of all isomers in series [2] (from C=CCCCCC[C@H](NC(=O)OC(C)(C)C)C(=O)N1C[C@H](Oc2ccnc3cc(OC)ccc23)C[C@H]1C(=O)N[C@]1(C(=O)NS(=O)(=O)C2CC2)C[C@H]1C=C, Grubbs catalyst, 1.02 mM, 83.0 °C, 10.0 h) stood at 1.9%.

As for `COc1ccc2c(O[C@@H]3C[C@H]4C(=O)N[C@]5(C(=O)NS(=O)(=O)C6CC6)C[C@H]5/C=C\CCCCC[C@H](NC(=O)OC(C)(C)C)C(=O)N4C3)cc(-c3csc(NC(C)=O)n3)nc2c1` [Compound 28, (1S,4R,6S,14S,18R)-7-cis-{18-[2-(2-Acetylaminothiazol-4-yl)-7-methoxyquinolin-4-yloxy]-4-cyclopropanesulfonylaminocarbonyl-2,15-dioxo-3,16-diazatricyclo-[14.3.0.0^4,6]nonadec-7-en-14-yl}carbamic acid tert-butyl ester], the IC50 in series [3] was below 50 nM. Besides, the EC50 in series [4] was below 50 nM.

As for `CC(C)(C)OC(=O)N[C@H]1CCCCC/C=C\[C@@H]2C[C@@]2(C(=O)NS(=O)(=O)C2CC2)NC(=O)[C@@H]2C[C@@H](Oc3ccnc4ccccc34)CN2C1=O` [Compound 29, (1S,4R,6S,14S,18R)-7-cis-[4-Cyclopropanesulfonylaminocarbonyl-2,15-dioxo-18-(quinolin-4-yloxy)-3,16-diazatricyclo[14.3.0.0^4,6]nonadec-7-en-14-yl]carbamic acid tert-butyl ester], in series [3], the concentration for half-maximal inhibition (IC50) is below 50 nM. For the same molecule, the EC50 in series [4] was below 50 nM.

For the molecule `CC(C)(C)OC(=O)N[C@H]1CCCCC/C=C\[C@@H]2C[C@@]2(C(=O)NS(C)(=O)=O)NC(=O)[C@@H]2C[C@@H](Oc3ccnc4ccccc34)CN2C1=O` [Compound 30, (1S,4R,6S,14S,18R)-7-cis-[4-Methanesulfonylaminocarbonyl-2,15-dioxo-18-(quinolin-4-yloxy)-3,16-diazatricyclo[14.3.0.0^4,6]nonadec-7-en-14-yl]-carbamic acid tert-butyl ester], the IC50 in series [3] was below 50 nM. Further, the concentration for a half-maximal effect (EC50) in series [4] is below 5000 nM.

Turning to `COc1ccc2c(O[C@@H]3C[C@H]4C(=O)N[C@]5(C(=O)NS(=O)(=O)C6CC6)CC5/C=C\CCCSC[C@H](NC(=O)OC(C)(C)C)C(=O)N4C3)cc(-c3ccccc3)nc2c1` (stereo partly drawn) [Compound 31, (1S,4R,6S,14S,18R)-7-cis-[4-Cyclopropanesulfonylaminocarbonyl-18-(7-methoxy-2-phenyl-quinolin-4-yloxy)-2,15-dioxo-12-thia-3,16-diazatricyclo[14.3.0.0^4,6]nonadec-7-en-14-yl]-carbamic acid tert-butyl ester], in series [3], the IC50 is below 50 nM. Besides, the EC50 in series [4] is below 50 nM.

In the case of `COc1ccc2c(O[C@@H]3C[C@H]4C(=O)N[C@]5(C(=O)NS(=O)(=O)C6CC6)CC5/C=C\CCCS(=O)(=O)C[C@H](NC(=O)OC(C)(C)C)C(=O)N4C3)cc(-c3ccccc3)nc2c1` (stereo partly drawn) [Compound 32, (1S,4R,6S,14S,18R)-7-cis-[4-Cyclopropanesulfonylaminocarbonyl-18-(7-methoxy-2-phenyl-quinolin-4-yloxy)-2,12,12,15-tetraoxo-12,16-thia-3,16-diazatricyclo[14.3.0.0^4,6]nonadec-7-en-14-yl]carbamic acid tert-butyl ester], the IC50 in series [3] is below 50 nM. Moreover, in series [4], the EC50 was below 50 nM.

With `CC(C)(C)OC(=O)N[C@H]1CCCCC/C=C\[C@@H]2C[C@@]2(C(=O)NS(=O)(=O)C2CC2)NC(=O)[C@@H]2C[C@@H](Oc3ccnc4c(C(F)(F)F)cccc34)CN2C1=O` [Compound 33, (1S,4R,6S,14S,18R)-7-cis-[4-Cyclopropanesulfonylaminocarbonyl-2,15-dioxo-18-(8-trifluoromethylquinol-in-4-yloxy)-3,16-diazatricyclo[14.3.0.04,6]nonadec-7-en-14-yl]-carbamic acid tert-butyl ester], the IC50 in series [3] was below 50 nM. In series [4], this molecule yielded an EC50 below 50 nM.

As to “(1S,4R,6S,12S,16R)-7-trans-12-tert-butoxycarbonylamino-16-(7-methoxy-2-phenylquinolin-4-yloxy)-2,13-dioxo-3,14-diazatricyclo[12.3.0.0^4,6]hepta-dec-7-ene-4-carboxylic acid ethyl ester”, the ring closure, isolated yield in series [1] (13-membered ring, Grubbs catalyst (2 x 75 mg)) amounted to 49%.
